# pIC50: −log10 of the molar value. Values joined by “and” are separate entries in the source; they are usually repeats but may differ in a detail not shown here. Identical values can stand only once.
# Assays:
# Assay in all cases: cell-based
# hNav1.6 = hNav1.6 (Homo sapiens, UniProt Q9UQD0); assay type: cell-based
# hNav1.7 [1] = target: T1, hNav1.7 (Homo sapiens, UniProt Q15858); assay type: cell-based; settings: Table 11; for Nav1.4/Nav1.7 / Nav1.5/Nav1.7: ratio of PX tonic IC50 values
# hNav1.7 [2] = target: T1, hNav1.7; settings: ratio of IonWorks Quattro IC50 values
# Sequence of hNav1.6 (Q9UQD0 whole entry): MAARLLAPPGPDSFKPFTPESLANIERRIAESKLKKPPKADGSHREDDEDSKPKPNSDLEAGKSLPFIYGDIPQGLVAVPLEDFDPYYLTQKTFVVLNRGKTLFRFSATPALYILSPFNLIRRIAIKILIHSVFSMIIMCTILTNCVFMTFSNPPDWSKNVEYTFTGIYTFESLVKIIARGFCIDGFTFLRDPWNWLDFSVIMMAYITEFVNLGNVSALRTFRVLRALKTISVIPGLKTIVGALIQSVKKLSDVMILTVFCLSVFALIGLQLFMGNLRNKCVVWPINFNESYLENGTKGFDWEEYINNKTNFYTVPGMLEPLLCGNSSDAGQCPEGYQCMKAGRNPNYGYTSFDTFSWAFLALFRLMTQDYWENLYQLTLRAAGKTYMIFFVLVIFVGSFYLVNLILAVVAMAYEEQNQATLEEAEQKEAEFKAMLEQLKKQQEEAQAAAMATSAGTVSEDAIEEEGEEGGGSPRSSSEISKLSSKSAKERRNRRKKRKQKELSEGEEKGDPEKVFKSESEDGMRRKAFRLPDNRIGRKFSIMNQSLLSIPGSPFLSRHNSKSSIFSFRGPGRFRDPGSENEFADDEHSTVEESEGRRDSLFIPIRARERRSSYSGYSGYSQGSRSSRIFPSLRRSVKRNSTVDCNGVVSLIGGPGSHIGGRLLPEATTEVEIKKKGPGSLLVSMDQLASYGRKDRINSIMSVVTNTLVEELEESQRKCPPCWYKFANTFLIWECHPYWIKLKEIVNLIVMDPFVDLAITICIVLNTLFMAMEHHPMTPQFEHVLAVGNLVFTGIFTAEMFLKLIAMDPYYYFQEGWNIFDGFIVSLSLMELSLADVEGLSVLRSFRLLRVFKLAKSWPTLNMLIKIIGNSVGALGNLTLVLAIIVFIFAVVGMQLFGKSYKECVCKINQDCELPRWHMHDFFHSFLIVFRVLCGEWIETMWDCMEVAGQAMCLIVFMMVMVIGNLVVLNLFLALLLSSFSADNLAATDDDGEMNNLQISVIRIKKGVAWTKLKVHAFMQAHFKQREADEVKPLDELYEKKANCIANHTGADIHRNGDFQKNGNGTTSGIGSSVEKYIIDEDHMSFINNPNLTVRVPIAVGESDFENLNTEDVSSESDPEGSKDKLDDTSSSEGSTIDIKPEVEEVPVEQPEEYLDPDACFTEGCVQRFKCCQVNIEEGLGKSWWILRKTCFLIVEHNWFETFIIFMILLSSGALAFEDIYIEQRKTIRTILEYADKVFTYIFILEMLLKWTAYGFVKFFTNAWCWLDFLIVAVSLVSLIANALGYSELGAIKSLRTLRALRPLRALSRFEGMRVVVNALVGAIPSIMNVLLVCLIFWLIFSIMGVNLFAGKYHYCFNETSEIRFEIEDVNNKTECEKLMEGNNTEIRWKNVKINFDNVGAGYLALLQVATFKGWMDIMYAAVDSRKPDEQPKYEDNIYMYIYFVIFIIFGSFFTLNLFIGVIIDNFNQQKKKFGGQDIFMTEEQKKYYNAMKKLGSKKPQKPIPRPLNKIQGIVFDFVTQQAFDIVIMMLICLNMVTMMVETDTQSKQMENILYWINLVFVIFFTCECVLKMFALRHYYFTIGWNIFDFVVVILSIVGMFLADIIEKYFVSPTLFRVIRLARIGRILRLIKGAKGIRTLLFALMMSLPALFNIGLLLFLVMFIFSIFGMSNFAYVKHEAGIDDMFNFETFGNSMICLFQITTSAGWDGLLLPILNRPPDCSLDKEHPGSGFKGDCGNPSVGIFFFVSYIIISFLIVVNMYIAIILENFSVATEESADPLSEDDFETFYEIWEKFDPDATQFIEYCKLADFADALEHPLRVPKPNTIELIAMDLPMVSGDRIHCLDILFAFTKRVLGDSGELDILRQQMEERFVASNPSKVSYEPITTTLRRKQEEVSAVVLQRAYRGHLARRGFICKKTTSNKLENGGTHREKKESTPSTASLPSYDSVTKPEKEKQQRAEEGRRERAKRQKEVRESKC
# T1 sequence (Q15858 whole entry): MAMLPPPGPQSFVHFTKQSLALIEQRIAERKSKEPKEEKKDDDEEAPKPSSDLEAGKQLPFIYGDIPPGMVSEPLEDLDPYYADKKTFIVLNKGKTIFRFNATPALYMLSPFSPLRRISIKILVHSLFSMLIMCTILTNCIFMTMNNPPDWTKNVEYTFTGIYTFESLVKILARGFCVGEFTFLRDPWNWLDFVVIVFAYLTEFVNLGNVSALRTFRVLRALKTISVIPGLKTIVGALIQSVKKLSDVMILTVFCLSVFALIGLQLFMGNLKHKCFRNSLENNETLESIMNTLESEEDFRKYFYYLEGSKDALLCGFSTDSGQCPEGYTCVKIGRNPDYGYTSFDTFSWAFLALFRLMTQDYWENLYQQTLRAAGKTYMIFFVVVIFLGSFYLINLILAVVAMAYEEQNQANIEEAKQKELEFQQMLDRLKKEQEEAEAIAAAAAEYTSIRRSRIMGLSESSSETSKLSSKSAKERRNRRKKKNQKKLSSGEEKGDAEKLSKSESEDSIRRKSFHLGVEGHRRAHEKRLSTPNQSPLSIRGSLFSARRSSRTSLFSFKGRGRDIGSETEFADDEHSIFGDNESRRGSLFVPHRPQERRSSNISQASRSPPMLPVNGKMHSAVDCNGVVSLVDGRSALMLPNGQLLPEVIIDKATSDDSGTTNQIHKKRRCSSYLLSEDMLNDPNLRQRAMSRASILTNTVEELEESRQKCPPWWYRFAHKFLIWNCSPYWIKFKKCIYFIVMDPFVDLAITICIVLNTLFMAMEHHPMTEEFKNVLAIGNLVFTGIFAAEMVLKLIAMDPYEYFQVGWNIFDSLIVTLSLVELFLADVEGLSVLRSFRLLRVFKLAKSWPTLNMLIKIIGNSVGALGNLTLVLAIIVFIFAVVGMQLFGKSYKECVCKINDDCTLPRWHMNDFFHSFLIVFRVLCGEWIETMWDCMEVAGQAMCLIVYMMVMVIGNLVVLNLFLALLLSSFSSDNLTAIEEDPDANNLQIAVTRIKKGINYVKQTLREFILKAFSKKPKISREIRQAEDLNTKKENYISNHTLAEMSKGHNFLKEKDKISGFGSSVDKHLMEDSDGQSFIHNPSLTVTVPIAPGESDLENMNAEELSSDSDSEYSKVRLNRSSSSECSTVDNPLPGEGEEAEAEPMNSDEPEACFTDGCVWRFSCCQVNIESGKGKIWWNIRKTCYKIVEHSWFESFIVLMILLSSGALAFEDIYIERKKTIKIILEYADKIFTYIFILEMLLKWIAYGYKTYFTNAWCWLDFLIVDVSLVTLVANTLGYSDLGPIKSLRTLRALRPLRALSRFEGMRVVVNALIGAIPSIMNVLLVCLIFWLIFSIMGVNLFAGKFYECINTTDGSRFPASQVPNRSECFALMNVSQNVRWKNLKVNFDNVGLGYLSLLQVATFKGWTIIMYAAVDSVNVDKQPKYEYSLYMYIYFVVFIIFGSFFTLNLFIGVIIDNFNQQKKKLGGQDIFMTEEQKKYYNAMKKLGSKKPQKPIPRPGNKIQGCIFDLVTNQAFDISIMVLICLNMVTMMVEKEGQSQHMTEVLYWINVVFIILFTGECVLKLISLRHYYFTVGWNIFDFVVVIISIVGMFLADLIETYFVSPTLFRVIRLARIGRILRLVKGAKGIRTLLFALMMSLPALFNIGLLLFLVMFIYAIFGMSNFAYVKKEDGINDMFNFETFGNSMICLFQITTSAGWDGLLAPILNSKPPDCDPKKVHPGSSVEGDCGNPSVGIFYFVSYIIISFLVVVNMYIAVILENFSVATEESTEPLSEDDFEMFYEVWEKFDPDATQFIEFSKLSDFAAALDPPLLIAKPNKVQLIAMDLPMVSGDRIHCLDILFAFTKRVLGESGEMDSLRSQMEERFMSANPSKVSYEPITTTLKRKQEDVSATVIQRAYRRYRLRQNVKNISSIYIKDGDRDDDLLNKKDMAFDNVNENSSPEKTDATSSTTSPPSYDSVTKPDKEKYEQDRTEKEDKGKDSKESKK
SMILES,Nav1.4/Nav1.7 (hNav1.7 [2]; Nav1.4 over Nav1.7),Nav1.4/Nav1.7 (hNav1.7 [1]),Nav1.5/Nav1.7 (hNav1.7 [1]),other results
"CC[C@H](C)[C@H](NC(=O)[C@H](CCC(=O)O)NC(=O)[C@H](CCCCN)NC(=O)[C@H](CCCNC(=N)N)NC(=O)[C@@H]1CSSC[C@@H]2NC(=O)[C@H](C)NC(=O)[C@H](CCCNC(=N)N)NC(=O)[C@H](CCCCN)NC(=O)[C@H](CO)NC(=O)[C@H](CC(=O)O)NC(=O)[C@@H]3CSSC[C@H](NC(=O)[C@H](CCCNC(=N)N)NC(=O)[C@H](CC(C)C)NC(=O)CNC(=O)[C@H](CCC(=O)O)NC(=O)[C@H](CSSC[C@H](NC(=O)[C@@H](N)Cc4ccc(O)cc4)C(=O)N[C@@H](CCC(N)=O)C(=O)N[C@@H](CCCCN)C(=O)N[C@@H](Cc4c[nH]c5ccccc45)C(=O)N[C@@H](CCSC)C(=O)N[C@@H](Cc4c[nH]c5ccccc45)C(=O)N[C@@H]([C@@H](C)O)C(=O)N3)NC2=O)C(=O)N[C@@H](CCCCN)C(=O)N[C@@H](CC(C)C)C(=O)N[C@@H](Cc2c[nH]c3ccccc23)C(=O)N1)C(N)=O [SEQ ID NO: 69, [Glu28]JzTx-V(1-29)]",,,,selectivity for Nav1.7 over Nav1.6 (hNav1.6; PatchXpress): 437 fold
CC[C@H](C)[C@H](NC(=O)[C@@H](NC(=O)[C@H](CCCCN)NC(=O)[C@H](CCCNC(=N)N)NC(=O)[C@@H]1CSSC[C@@H]2NC(=O)[C@H](C)NC(=O)[C@H](CCCNC(=N)N)NC(=O)[C@H](CCCCN)NC(=O)[C@H](CO)NC(=O)[C@H](CC(=O)O)NC(=O)[C@@H]3CSSC[C@H](NC(=O)[C@H](CCCNC(=N)N)NC(=O)[C@H](CC(C)C)NC(=O)CNC(=O)[C@H](CCC(=O)O)NC(=O)[C@H](CSSC[C@H](NC(=O)[C@@H](N)Cc4ccc(O)cc4)C(=O)N[C@@H](CCC(N)=O)C(=O)N[C@@H](CCC(=O)O)C(=O)N[C@@H](Cc4c[nH]c5ccccc45)C(=O)N[C@@H](CCSC)C(=O)N[C@@H](Cc4c[nH]c5ccccc45)C(=O)N[C@@H]([C@@H](C)O)C(=O)N3)NC2=O)C(=O)N[C@@H](CCCCN)C(=O)N[C@@H](CC(C)C)C(=O)N[C@@H](Cc2c[nH]c3ccccc23)C(=O)N1)[C@@H](C)CC)C(N)=O [compound 51],,,,"Nav1.6/Nav1.7 (hNav1.6; Table 15, ratio of PX tonic IC50 values): >12; pIC50 (hNav1.6; Table 15, read-out: PX hNav1.6 Tonic IC50): < 5.00; pIC50 (hNav1.7 [1]; PatchXpress, tonic, read-out: PX hNav1.7 Tonic IC50): 6.07"
CC[C@H](C)[C@H](NC(=O)[C@@H](NC(=O)[C@H](CCCCN)NC(=O)[C@H](CCCNC(=N)N)NC(=O)[C@@H]1CSSC[C@@H]2NC(=O)[C@H](C)NC(=O)[C@H](CCCNC(=N)N)NC(=O)[C@H](CCCCN)NC(=O)[C@H](CO)NC(=O)[C@H](CC(=O)O)NC(=O)[C@@H]3CSSC[C@H](NC(=O)[C@H](Cc4ccc(O)cc4)NC(=O)[C@H](CC(C)C)NC(=O)CNC(=O)[C@H](CCC(=O)O)NC(=O)[C@H](CSSC[C@H](NC(=O)[C@@H](N)Cc4ccc(O)cc4)C(=O)N[C@@H](CCC(N)=O)C(=O)N[C@@H](CCCCN)C(=O)N[C@@H](Cc4c[nH]c5ccccc45)C(=O)N[C@@H](CCSC)C(=O)N[C@@H](Cc4c[nH]c5ccccc45)C(=O)N[C@@H]([C@@H](C)O)C(=O)N3)NC2=O)C(=O)N[C@@H](CCCCN)C(=O)N[C@@H](CC(C)C)C(=O)N[C@@H](Cc2c[nH]c3ccccc23)C(=O)N1)[C@@H](C)CC)C(N)=O [compound 124],43,266,>1695,
CC[C@H](C)[C@H](NC(=O)[C@@H](NC(=O)[C@H](CCCCN)NC(=O)[C@H](CCCNC(=N)N)NC(=O)[C@@H]1CSSC[C@@H]2NC(=O)[C@H](C)NC(=O)[C@H](CCCNC(=N)N)NC(=O)[C@H](CCCCN)NC(=O)[C@H](CO)NC(=O)[C@H](CC(=O)O)NC(=O)[C@@H]3CSSC[C@H](NC(=O)[C@H](CCC(=O)O)NC(=O)[C@H](CC(C)C)NC(=O)CNC(=O)[C@H](CCC(=O)O)NC(=O)[C@H](CSSC[C@H](NC(=O)[C@@H](N)Cc4ccc(O)cc4)C(=O)N[C@@H](CCC(N)=O)C(=O)N[C@@H](CCCCN)C(=O)N[C@@H](Cc4c[nH]c5ccccc45)C(=O)N[C@@H](CCSC)C(=O)N[C@@H](Cc4c[nH]c5ccccc45)C(=O)N[C@@H]([C@@H](C)O)C(=O)N3)NC2=O)C(=O)N[C@@H](CCCCN)C(=O)N[C@@H](CC(C)C)C(=O)N[C@@H](Cc2c[nH]c3ccccc23)C(=O)N1)C(C)C)C(N)=O [compound 133],51,320,1341,
CC[C@H](C)[C@H](NC(=O)[C@H](CCCNC(N)=O)NC(=O)[C@H](CCCCN)NC(=O)[C@H](CCCNC(=N)N)NC(=O)[C@@H]1CSSC[C@@H]2NC(=O)[C@H](C)NC(=O)[C@H](CCCNC(=N)N)NC(=O)[C@H](CCCCN)NC(=O)[C@H](CO)NC(=O)[C@H](CC(=O)O)NC(=O)[C@@H]3CSSC[C@H](NC(=O)[C@H](CCC(=O)O)NC(=O)[C@H](CC(C)C)NC(=O)CNC(=O)[C@H](CCC(=O)O)NC(=O)[C@H](CSSC[C@H](NC(=O)[C@@H](N)Cc4ccc(O)cc4)C(=O)N[C@@H](CCC(N)=O)C(=O)N[C@@H](CCCCN)C(=O)N[C@@H](Cc4c[nH]c5ccccc45)C(=O)N[C@@H](CCSC)C(=O)N[C@@H](Cc4c[nH]c5ccccc45)C(=O)N[C@@H]([C@@H](C)O)C(=O)N3)NC2=O)C(=O)N[C@@H](CCCCN)C(=O)N[C@@H](CC(C)C)C(=O)N[C@@H](Cc2c[nH]c3ccccc23)C(=O)N1)C(N)=O [compound 135],46,1075,>1786,
CCC[C@H](NC(=O)[C@H](CCCCN)NC(=O)[C@H](CCCNC(=N)N)NC(=O)[C@@H]1CSSC[C@@H]2NC(=O)[C@H](C)NC(=O)[C@H](CCCNC(=N)N)NC(=O)[C@H](CCCCN)NC(=O)[C@H](CO)NC(=O)[C@H](CC(=O)O)NC(=O)[C@@H]3CSSC[C@H](NC(=O)[C@H](CCC(=O)O)NC(=O)[C@H](CC(C)C)NC(=O)CNC(=O)[C@H](CCC(=O)O)NC(=O)[C@H](CSSC[C@H](NC(=O)[C@@H](N)Cc4ccc(O)cc4)C(=O)N[C@@H](CCC(N)=O)C(=O)N[C@@H](CCCCN)C(=O)N[C@@H](Cc4c[nH]c5ccccc45)C(=O)N[C@@H](CCSC)C(=O)N[C@@H](Cc4c[nH]c5ccccc45)C(=O)N[C@@H]([C@@H](C)O)C(=O)N3)NC2=O)C(=O)N[C@@H](CCCCN)C(=O)N[C@@H](CC(C)C)C(=O)N[C@@H](Cc2c[nH]c3ccccc23)C(=O)N1)C(=O)N[C@H](C(N)=O)[C@@H](C)CC [compound 136],66 and 34,405,611,
CC[C@H](C)[C@H](NC(=O)[C@H](Cc1ccc(O)cc1)NC(=O)[C@H](CCCCN)NC(=O)[C@H](CCCNC(=N)N)NC(=O)[C@@H]1CSSC[C@@H]2NC(=O)[C@H](C)NC(=O)[C@H](CCCNC(=N)N)NC(=O)[C@H](CCCCN)NC(=O)[C@H](CO)NC(=O)[C@H](CC(=O)O)NC(=O)[C@@H]3CSSC[C@H](NC(=O)[C@H](CCC(=O)O)NC(=O)[C@H](CC(C)C)NC(=O)CNC(=O)[C@H](CCC(=O)O)NC(=O)[C@H](CSSC[C@H](NC(=O)[C@@H](N)Cc4ccc(O)cc4)C(=O)N[C@@H](CCC(N)=O)C(=O)N[C@@H](CCCCN)C(=O)N[C@@H](Cc4c[nH]c5ccccc45)C(=O)N[C@@H](CCSC)C(=O)N[C@@H](Cc4c[nH]c5ccccc45)C(=O)N[C@@H]([C@@H](C)O)C(=O)N3)NC2=O)C(=O)N[C@@H](CCCCN)C(=O)N[C@@H](CC(C)C)C(=O)N[C@@H](Cc2c[nH]c3ccccc23)C(=O)N1)C(N)=O [compound 137],41,1411,12667,
CC[C@H](C)[C@H](NC(=O)[C@H](Cc1ccc(O)cc1)NC(=O)[C@H](CCCCN)NC(=O)[C@H](CCCNC(=N)N)NC(=O)[C@@H]1CSSC[C@@H]2NC(=O)[C@H](C)NC(=O)[C@H](CCCNC(=N)N)NC(=O)[C@H](CCCCN)NC(=O)[C@H](CO)NC(=O)[C@H](CC(=O)O)NC(=O)[C@@H]3CSSC[C@H](NC(=O)[C@H](CCC(=O)O)NC(=O)[C@H](CC(C)C)NC(=O)CNC(=O)[C@H](CCC(=O)O)NC(=O)[C@H](CSSC[C@H](NC(=O)[C@@H](N)Cc4ccc(O)cc4)C(=O)N[C@@H](CCC(N)=O)C(=O)N[C@@H](CCCCN)C(=O)N[C@@H](Cc4ccc(I)cc4)C(=O)N[C@@H](CCSC)C(=O)N[C@@H](Cc4c[nH]c5ccccc45)C(=O)N[C@@H]([C@@H](C)O)C(=O)N3)NC2=O)C(=O)N[C@@H](CCCCN)C(=O)N[C@@H](CC(C)C)C(=O)N[C@@H](Cc2c[nH]c3ccccc23)C(=O)N1)C(N)=O [compound 192],,78,>455,Nav1.4/Nav1.7 (hNav1.7 [2]; Table 8): 30
CSCC[C@@H]1NC(=O)[C@H](Cc2c[nH]c3ccccc23)NC(=O)[C@H](CCCCN)NC(=O)[C@H](CCC(N)=O)NC(=O)[C@@H](NC(=O)[C@@H](N)Cc2ccc(O)cc2)CSSC[C@@H]2NC(=O)[C@@H]3CSSC[C@@H](C(=O)N[C@@H](CCCNC(=N)N)C(=O)N[C@@H](CCCCN)C(=O)N[C@@H](Cc4ccc(O)cc4)C(=O)N[C@@H](Cc4cccc5ccccc45)C(N)=O)NC(=O)[C@H](Cc4c[nH]c5ccccc45)NC(=O)[C@H](CC(C)C)NC(=O)[C@H](CCCCN)NC(=O)[C@H](CSSC[C@H](NC(=O)[C@H]([C@@H](C)O)NC(=O)[C@H](Cc4c[nH]c5ccccc45)NC1=O)C(=O)N[C@@H](CC(=O)O)C(=O)N[C@@H](CO)C(=O)N[C@@H](CCCCN)C(=O)N[C@@H](CCCNC(=N)N)C(=O)N[C@@H](C)C(=O)N3)NC(=O)[C@H](CCC(=O)O)NC(=O)[C@H](CC(C)C)NC(=O)CNC(=O)[C@H](CCC(=O)O)NC2=O [compound 232],,372,480,Nav1.4/Nav1.7 (hNav1.7 [2]; Table 8): 91

# — US10344060B2 (priority 2013, dated 2019)
